Assay results from patent publication US20030068615A1, “Polypeptides that bind HIV gp120 and related nucleic acids, antibodies, compositions, and methods of use” (priority 1999, published 2003).
Like-named read-outs stand apart in the source and are kept apart here.

Target: HIV-1LAI envelope gp120 (Human immunodeficiency virus type 1 group M subtype B, UniProt P03377)
Assay type: binding
Conditions: for Counts per 20′ Average-background: CCR5 18-mer scan, radiolabeled HIV-1LAI gp120; for Binding Results For Window Length (counts bound-background), 9: 9-mer starting at the first residue of the printed sequence
[1] = Panel E, 9-mers and 12-mers of CD4, empty control 571
[2] = Panel D, 9-mers and 12-mers of CD4, empty control […]
[3] = STRL33 18-mer scan, background subtracted, first of two count columns
[4] = STRL33 18-mer scan, background subtracted, second of two count columns
[5] = CXCR4 18-mer scan, background subtracted, empty control 0
[6] = CXCR4 18-mer scan, empty control 412
[7] = Panel B, 15-mers and 18-mers of CD4, empty control 575
[8] = STRL33 amino terminus, background subtracted
[9] = Panel C, 15-mers and 18-mers of CD4, empty control 556
[10] = Panel A, 21-mers of CD4, empty control 515 and 617

Q: How did the “COUNTS of radiolabeled gp120 retained” value [1] turn out when ASSIVYKKEGEQ was run?
A: 523 counts

Q: Which “COUNTS of radiolabeled gp120 retained” value [2] does the source give for EVEDQKEEVQLL here?
A: 508 counts

Q: With “TIMVTEAIAYLRACLNPV [STRL33 segment 269-286]” as the sequence, how does the “radioactive counts recorded in twenty minutes” value (“radioactive counts recorded” for short) [3] read?
A: 140.5 counts

Q: And the “radioactive counts recorded” value [4]?
A: 272.5 counts

Q: With SSIVYKKEG as the sequence, how does the “COUNTS of radiolabeled gp120 retained” value [1] read?
A: 515 counts

Q: How did the “Counts per 20′ Average-background” value (background subtracted) turn out when SIFQQEAPERASSVYTRS [CCR5 segment 325-] was run?
A: 100 counts per 20′

Q: For FQTLKIVILGLVLPLLVM [CCR5 segment 193-], which “Counts per 20′ Average-background” value (background subtracted) is on record?
A: 45 counts per 20′

Q: TANSDTHLLQGQ was tested. Which “COUNTS of radiolabeled gp120 retained” value [2] did it give?
A: 549 counts

Q: Which “Counts per 20′ Average-background” value (background subtracted) does the source give for MDYQVSSPIYDINYYTSE here?
A: 735 counts per 20′

Q: And the “Relative % of Control” value (CCR5 (1-18) alanine variants, mean of two syntheses and binding experiments ± average deviation, wild-type = 100%)?
A: 100%

Q: For “IVGNGLVILVMGYQKKLR [CXCR4 segment 53-70]”, which “radioactive counts recorded” value [5] is on record?
A: 238 counts

Q: What about the “radioactive counts recorded” value [6] of the same sequence?
A: 650 counts

Q: Which “COUNTS of radiolabeled gp120 retained” value [7] does the source give for DQKEEVQLLVFGLTA here?
A: 3905 counts

Q: Which results are given for “IFLVMAVFLLTQMPFNLM [STRL33 segment 233-250]”?
A: radioactive counts recorded in twenty minutes [3]: 386.5 counts; radioactive counts recorded in twenty minutes [4]: 772.5 counts

Q: Which “COUNTS of radiolabeled gp120 retained” value [2] does the source give for HLLQGQSLT here?
A: 564 counts

Q: Which “COUNTS of radiolabeled gp120 retained” value [7] does the source give for FGLTANSDTHLLQGQSLT here?
A: 591 counts

Q: For QGNFPLIIK, which “COUNTS of radiolabeled gp120 retained” value [2] is on record?
A: 508 counts

Q: What does the source list for “LNPILYAFLGAKFKTSAQ [CXCR4 segment 297-314]”?
A: radioactive counts recorded in twenty minutes [5]: 274 counts; radioactive counts recorded in twenty minutes [6]: 686 counts

Q: How did the “COUNTS of radiolabeled gp120 retained” value [7] turn out when KEEVQLLVFGLTANSDTH was run?
A: 1271 counts

Q: Which “COUNTS of radiolabeled gp120 retained” value [1] does the source give for VEFSFPLAF here?
A: 1064 counts

Q: How did the “COUNTS of radiolabeled gp120 retained” value [1] turn out when LAFTVEKLTGSG was run?
A: 608 counts

Q: How did the “Binding Results For Window Length (counts bound-background), 9” value [8] turn out when GFSSFNDSSQEEEQAFLQ was run?
A: 171 counts

Q: And the “Binding Results For Window Length (counts bound-background), 12” value (STRL33 amino terminus, 12-mer starting at the first residue of the printed sequence, background subtracted)?
A: 480 counts

Q: And the “Binding Results For Window Length (counts bound-background), 15” value (STRL33 amino terminus, 15-mer starting at the first residue of the printed sequence, background subtracted)?
A: 270 counts

Q: What about the “Binding Results For Window Length (counts bound-background), 18” value (STRL33 amino terminus, 18-mer starting at the first residue of the printed sequence, background subtracted) of the same sequence?
A: 1639 counts

Q: With “IGISIDSFILLEIIKQGC [CXCR4 segment 257-274]” as the sequence, how does the “radioactive counts recorded” value [5] read?
A: 734 counts

Q: And the “radioactive counts recorded” value [6]?
A: 1146 counts

Q: QKASSIVYKKEGEQV was tested. Which “COUNTS of radiolabeled gp120 retained” value [9] did it give?
A: 519 counts

Q: How did the “radioactive counts recorded” value [5] turn out when “GCEFENTVHKWISITEAL [CXCR4 segment 273-290]” was run?
A: 264 counts

Q: What about the “radioactive counts recorded” value [6] of the same sequence?
A: 676 counts

Q: Which “COUNTS of radiolabeled gp120 retained” value [2] does the source give for GNFPLIIKNLKI here?
A: 547 counts

Q: Which results are given for YSSVLILAFISLDRYLAI?
A: radioactive counts recorded in twenty minutes [5]: 157 counts; radioactive counts recorded in twenty minutes [6]: 569 counts

Q: With FSFPLAFTVEKLTGSGELWWQ as the sequence, how does the “COUNTS of radiolabeled gp120 retained” value [10] read?
A: 4163 counts

Q: And the “number of radioactive decays (counts) counted” value (human CD4 21-mer scan, empty control 2075)?
A: 9673 counts

Q: For DTYICEVEDQKEEVQLLV, which “COUNTS of radiolabeled gp120 retained” value [7] is on record?
A: 1648 counts

Q: For QNQKKVEFKIDI, which “COUNTS of radiolabeled gp120 retained” value [1] is on record?
A: 559 counts

Q: LKIEDSDTY was tested. Which “COUNTS of radiolabeled gp120 retained” value [2] did it give?
A: 492 counts

Q: With HLLQGQSLTLTLESP as the sequence, how does the “COUNTS of radiolabeled gp120 retained” value [7] read?
A: 1277 counts

Q: How did the “COUNTS of radiolabeled gp120 retained” value [1] turn out when AFTVEKLTGSGE was run?
A: 511 counts

Q: TGSGELWWQ was tested. Which “COUNTS of radiolabeled gp120 retained” value [1] did it give?
A: 507 counts

Q: For LQGQSLTLT, which “COUNTS of radiolabeled gp120 retained” value [2] is on record?
A: 501 counts

Q: How did the “COUNTS of radiolabeled gp120 retained” value [9] turn out when VEFKIDIVVLAFQKASSI was run?
A: 819 counts

Q: Which “COUNTS of radiolabeled gp120 retained” value [7] does the source give for EVEDQKEEVQLLVFGLTA here?
A: 3647 counts

Q: For EDSDTYICEVEDQKEEVQ, which “COUNTS of radiolabeled gp120 retained” value [7] is on record?
A: 788 counts

Q: With HQAFLQFSK as the sequence, how does the “Binding Results For Window Length (counts bound-background), 9” value [8] read?
A: 2761 counts

Q: How did the “COUNTS of radiolabeled gp120 retained” value [7] turn out when LWDQGNFPLIIKNLKIED was run?
A: 582 counts

Q: With LKIEDSDTYICEVEDQKE as the sequence, how does the “COUNTS of radiolabeled gp120 retained” value [7] read?
A: 872 counts

Q: For LSKGKRGGHSSVSTESES, which “radioactive counts recorded” value [5] is on record?
A: 185 counts

Q: And the “radioactive counts recorded” value [6]?
A: 597 counts

Q: For CEVEDQKEEVQLLVF, which “COUNTS of radiolabeled gp120 retained” value [7] is on record?
A: 1729 counts

Q: Which “radioactive counts recorded” value [5] does the source give for QRPRKLLAEKVVYVGVWI here?
A: 127 counts

Q: What about the “radioactive counts recorded” value [6] of the same sequence?
A: 539 counts

Q: Which “Counts per 20′ Average-background” value (background subtracted) does the source give for LPLLVMVICYSGILKTLL [CCR5 segment 205-] here?
A: 68 counts per 20′

Q: With VIIKTLLHAGGFQKERSL as the sequence, how does the “radioactive counts recorded” value [3] read?
A: 961.5 counts

Q: And the “radioactive counts recorded” value [4]?
A: 682.5 counts

Q: Which “COUNTS of radiolabeled gp120 retained” value [10] does the source give for KEGEQVEFSFPLAFTVEKLTG here?
A: 972 counts

Q: For KIDIVVLAF, which “COUNTS of radiolabeled gp120 retained” value [1] is on record?
A: 665 counts

Q: For KLTGSGELW, which “COUNTS of radiolabeled gp120 retained” value [1] is on record?
A: 491 counts

Q: Which “Counts per 20′ Average-background” value (background subtracted) does the source give for VMVICYSGILKTLLRCRN [CCR5 segment 209-] here?
A: −8 counts per 20′

Q: How did the “COUNTS of radiolabeled gp120 retained” value [1] turn out when KKVEFKIDI was run?
A: 501 counts

Q: For VVLAFQKASSIVYKK, which “COUNTS of radiolabeled gp120 retained” value [9] is on record?
A: 577 counts
